What was measured:
corn [1] = test: Pre-planting sugar application on corn, Foxhome; format: in vivo; conditions: for Yield / Yield Increase Compared to Check Average: MN
Description: (§1) The field trials were conducted simultaneously in two different planting locations for each of the crops. One location was near the community of Foxhome in Wilkin County, Minnesota (hereafter referred to as “Foxhome”) while the second location was near the community of Hickson in Cass County, North Dakota (hereafter referred to as “Hickson”). The Foxhome and Hickson locations are on opposite sides of the Red River along the border of Minnesota and North Dakota and separated by a distance exceeding 40 miles. Generally, the Foxhome location has heavier clay loam soil conditions while Hickson has sandy loam soil conditions.
(§2) At each of the Foxhome and Hickson locations, a total of thirty two (32) treatments were conducted for each crop (sugarbeets, soybeans, corn, wheat). Each treatment was replicated four times arranged in a Randomized Complete Block (RCB) Design in the same field. Each replication consisted of a plot measuring twenty five (25) feet in length and eleven (11) feet in width. In selecting the particular seed types for evaluation, popular commercial varieties to the region were utilized. For the row crops (sugarbeets, soybeans, corn) each replication included a width of six (6) rows with twenty two (22) inch row spacing and having a row length of twenty five (25) feet. The wheat was planted in accordance with standard commercial practices. To reduce/eliminate any treatment impacts between adjacent plots for the crops, only the four (4) interior rows of each plot were treated and evaluated for row crops, while for wheat, only the interior 7.33 feet of each plot were treated and evaluated. With the exception of the treatment program applied to the individual plots, which will be discussed below, conventional commercial growing practices for each planting location were otherwise followed during the field trials. While the individual plots at the same location, Hickson or Foxhome, experienced essentially the same growing conditions throughout the season, there were various differences associated with localized precipitation, general growing conditions, soil classification and the like, which contributed to performance differences between the Hickson and Foxhome locations.
(§3) The treatment regimen at each location for each of the tested crops included two (2) untreated treatments (Treatments 31 and 32) in which no sugar was applied and constitute the control elements. […] Six (6) treatments (Treatments 13-18) included the liquid application of high fructose corn syrup (hereafter “HFCS”) at varying rates. Six treatments (Treatments 19-24) included the liquid application of dextrose (hereafter “LIQDEX”) at varying rates. Six (6) treatments (Treatments 25-30) included the application of powdered cellulose (hereafter “POWCEL”) at varying rates. For the sugar applied in a solid form, granulated or powdered, field application was conducted via conventional broadcast spreading. For the sugar applied in a liquid form, a liquid concentrate was mixed and diluted with water in a tank and a conventional sprayer was configured such that the liquid was sprayed so as to have the same sugar equivalent (measured in pounds/per acre) as the sugar in solid form. Regardless of whether the sugar was applied as a solid or liquid, the sugar was applied directly onto the soil before spring tillage, lightly worked into the ground and followed by planting of the crop seed in the treated ground. A summary of application rates for each plot treatments are contained in Table 7 below and were used consistently with each of the crops (sugarbeets, soybeans, corn, wheat).
(§4) To test the impact of pre-planting application rates and sugar source on corn, identical field trials using Peterson Farms brand corn seed were conducted at the Foxhome and Hickson locations. Planting of the corn seed and harvest of the corn were conducted on the same dates so as to have essentially the same growing season. […]

soybeans = test: Pre-planting sugar application on soybeans, Hickson; format: in vivo, soybean; conditions: for Yield / Yield Increase Compared to Check Average: ND
Description: as §1, §2, §3
To test the impact of pre-planting application rates and sugar source on soybeans, identical field trials using Syngenta brand soybean seed were conducted at the Foxhome and Hickson locations. Planting of the soybean seed and harvest of the soybeans were conducted on approximately the same dates so as to have essentially the same growing season. […]

corn [2] = test: Pre-planting sugar application on corn, Hickson; format: in vivo; conditions: for Yield / Yield Increase Compared to Check Average: ND
Description: as §1, §2, §3, §4

sugarbeets = test: Pre-planting sugar application on sugarbeets, Hickson; format: in vivo, sugarbeet; conditions: for Recoverable Sugar Yield / Recoverable Sugar Yield Increase Compared to Check Average / Sugarbeet Yield: ND
Description: as §1, §2, §3
To test the impact of pre-planting application rates and sugar source on sugarbeets, identical field trials using Crystal® brand ACH 260 sugarbeet seed were conducted at the Foxhome and Hickson locations. Planting of the sugarbeet seed and harvest of the sugarbeets were conducted on as close to the same dates as practical so as to have essentially the same length growing season. […]

[3] = test system: microflora that are present in the soil; test: Solvita Soil CO2-Burst test of pre-emergent soil samples, soybean trial in Hickson
Description: In an attempt to quantify this boost, soil samples were taken during some of the previously discussed trials. These samples were tested using a standard Solvita Soil CO2-Burst Test Kit to generate measurements associated with CO2 respiration which can be used as an indicator of active soil carbon, soil microbial biomass and the potential for nutrient release beneficial to crop production. Generally, the higher the measured levels of CO2, the more advantageous the soil is for crop production.
The results of the CO2-Burst Testing are summarized in Table 17 below (using the replication designations from Table 7): […]

[4] = six rates (25-250 pounds/Acre) per sugar, thirty in all

In the case of `OC[C@H]1O[C@@](CO)(O[C@H]2O[C@H](CO)[C@@H](O)[C@H](O)[C@H]2O)[C@@H](O)[C@@H]1O` [GS, sucrose], the Yield (corn [1]; pre-planting 25 pounds/Acre) is reported as 271.62 Bushels/Acre, the “Yield Increase Compared to Check Average” value (corn [1]; pre-planting 25 pounds/Acre) is reported as 2.20% and the Yield (corn [1]; pre-planting 50 pounds/Acre) is reported as 272.13 Bushels/Acre. For the same molecule, the “Yield Increase Compared to Check Average” value (corn [1]; pre-planting 50 pounds/Acre) was 2.40%, the Yield (corn [1]; pre-planting 100 pounds/Acre) was 274.80 Bushels/Acre and the “Yield Increase Compared to Check Average” value (corn [1]; pre-planting 100 pounds/Acre) was 3.40%. The Yield (corn [1]; pre-planting 150 pounds/Acre) was 263.34 Bushels/Acre, the “Yield Increase Compared to Check Average” value (corn [1]; pre-planting 150 pounds/Acre) was −0.91% and the Yield (corn [1]; pre-planting 200 pounds/Acre) was 264.61 Bushels/Acre. The “Yield Increase Compared to Check Average” value (corn [1]; pre-planting 200 pounds/Acre) was −0.43%, the Yield (corn [1]; pre-planting 250 pounds/Acre) was 260.71 Bushels/Acre and the “Yield Increase Compared to Check Average” value (corn [1]; pre-planting 250 pounds/Acre) was −1.90%. The “number of treatments showing yield improvement compared to check average” value (corn [1]; [4]) was “three of the six”, the Yield (soybeans; pre-planting 25 pounds/Acre) was 62.54 Bushels/Acre and the “Yield Increase Compared to Check Average” value (soybeans; pre-planting 25 pounds/Acre) was 1.28%. For the same molecule, the Yield (soybeans; pre-planting 50 pounds/Acre) was 63.6 Bushels/Acre, the “Yield Increase Compared to Check Average” value (soybeans; pre-planting 50 pounds/Acre) was 3.00% and the Yield (soybeans; pre-planting 100 pounds/Acre) was 62.06 Bushels/Acre. For the same molecule, the “Yield Increase Compared to Check Average” value (soybeans; pre-planting 100 pounds/Acre) was 0.50%, the Yield (soybeans; pre-planting 150 pounds/Acre) was 64.21 Bushels/Acre and the “Yield Increase Compared to Check Average” value (soybeans; pre-planting 150 pounds/Acre) was 3.98%. For the same molecule, the Yield (soybeans; pre-planting 200 pounds/Acre) was 62.15 Bushels/Acre, the “Yield Increase Compared to Check Average” value (soybeans; pre-planting 200 pounds/Acre) was 0.65% and the Yield (soybeans; pre-planting 250 pounds/Acre) was 61.12 Bushels/Acre. The “Yield Increase Compared to Check Average” value (soybeans; pre-planting 250 pounds/Acre) was −1.02%, the “number of treatments showing yield improvement compared to check average” value (soybeans; [4]) was “five of the six” and the Yield (corn [2]; pre-planting 25 pounds/Acre) was 188.56 Bushels/Acre. The “Yield Increase Compared to Check Average” value (corn [2]; pre-planting 25 pounds/Acre) was 22.03%, the Yield (corn [2]; pre-planting 50 pounds/Acre) was 153.24 Bushels/Acre and the “Yield Increase Compared to Check Average” value (corn [2]; pre-planting 50 pounds/Acre) was −0.83%. For the same molecule, the Yield (corn [2]; pre-planting 100 pounds/Acre) was 165.78 Bushels/Acre, the “Yield Increase Compared to Check Average” value (corn [2]; pre-planting 100 pounds/Acre) was 7.29% and the Yield (corn [2]; pre-planting 150 pounds/Acre) was 161.20 Bushels/Acre. For the same molecule, the “Yield Increase Compared to Check Average” value (corn [2]; pre-planting 150 pounds/Acre) was 4.32%, the Yield (corn [2]; pre-planting 200 pounds/Acre) was 163.58 Bushels/Acre and the “Yield Increase Compared to Check Average” value (corn [2]; pre-planting 200 pounds/Acre) was 5.86%. For the same molecule, the Yield (corn [2]; pre-planting 250 pounds/Acre) was 156.06 Bushels/Acre, the “Yield Increase Compared to Check Average” value (corn [2]; pre-planting 250 pounds/Acre) was 1.00% and the “number of treatments showing yield improvement compared to check average” value (corn [2]; [4]) was “five of the six”. For the same molecule, the “Recoverable Sugar Yield” value (sugarbeets; pre-planting 25 pounds/Acre) was 9560 Pounds/Acre, the “Recoverable Sugar Yield Increase Compared to Check Average” value (sugarbeets; pre-planting 25 pounds/Acre) was −2.54% and the “Sugarbeet Yield” value (sugarbeets; pre-planting 25 pounds/Acre) was 32.73 Tons/Acre. For the same molecule, the “Recoverable Sugar Yield” value (sugarbeets; pre-planting 50 pounds/Acre) was 10509 Pounds/Acre, the “Recoverable Sugar Yield Increase Compared to Check Average” value (sugarbeets; pre-planting 50 pounds/Acre) was 7.14% and the “Sugarbeet Yield” value (sugarbeets; pre-planting 50 pounds/Acre) was 35.37 Tons/Acre. The “Recoverable Sugar Yield” value (sugarbeets; pre-planting 100 pounds/Acre) was 9360 Pounds/Acre, the “Recoverable Sugar Yield Increase Compared to Check Average” value (sugarbeets; pre-planting 100 pounds/Acre) was −4.58% and the “Sugarbeet Yield” value (sugarbeets; pre-planting 100 pounds/Acre) was 31.94 Tons/Acre. For the same molecule, the “Recoverable Sugar Yield” value (sugarbeets; pre-planting 150 pounds/Acre) was 9877 Pounds/Acre, the “Recoverable Sugar Yield Increase Compared to Check Average” value (sugarbeets; pre-planting 150 pounds/Acre) was 0.69% and the “Sugarbeet Yield” value (sugarbeets; pre-planting 150 pounds/Acre) was 32.34 Tons/Acre. The “Recoverable Sugar Yield” value (sugarbeets; pre-planting 200 pounds/Acre) was 9426 Pounds/Acre, the “Recoverable Sugar Yield Increase Compared to Check Average” value (sugarbeets; pre-planting 200 pounds/Acre) was −3.90% and the “Sugarbeet Yield” value (sugarbeets; pre-planting 200 pounds/Acre) was 31.37 Tons/Acre. For the same molecule, the “Recoverable Sugar Yield” value (sugarbeets; pre-planting 250 pounds/Acre) was 9587 Pounds/Acre, the “Recoverable Sugar Yield Increase Compared to Check Average” value (sugarbeets; pre-planting 250 pounds/Acre) was −2.26% and the “Sugarbeet Yield” value (sugarbeets; pre-planting 250 pounds/Acre) was 30.7 Tons/Acre. For the same molecule, the “number of treatments showing negative yield benefits compared to check average” value (sugarbeets; six rates per sugar) was “four of the six”, the “CO2 Burst ppm” value ([3]; sugar amount 50 pounds/acre) was 63 ppm and the “CO2 Increase as Compared to Check Average” value (from here on “CO2 Increase”) ([3]; sugar amount 50 pounds/acre) was 38.46%. The “CO2 Burst ppm” value ([3]; sugar amount 150 pounds/acre) was 75 ppm, the “CO2 Increase” value ([3]; sugar amount 150 pounds/acre) was 64.84% and the “CO2 Burst ppm” value ([3]; sugar amount 250 pounds/acre) was 53 ppm. For the same molecule, the “CO2 Increase” value ([3]; sugar amount 250 pounds/acre) was 16.48%.

From patent publication US20160262390A1, “FIELD APPLICATION OF SUGARS TO INCREASE CROP YIELD” (Minn-Dak Farmers Cooperative, priority 2015, published 2016)
